ChEMBL document CHEMBL3886365, “Substituted oxadiazole compounds” (2015)

Columns and labels:
[1] = target: Sphingosine 1-phosphate receptor 1 (Homo sapiens, UniProt P21453); assay: (§1) GTPgammaS Binding Assay: Compounds were loaded in a 384 Falcon v-bottom plate (0.5 ul/well in a 11 point, 3-fold dilution). Membranes prepared from S1P1/CHO cells or EDG3-Ga15-bla HEK293T cells were added to the compound plate (40 ul/well, final protein 3 ug/well) with MULTIDROP. [35S]GTP (1250 Ci/mmol, Perkin Elmer) was diluted in assay buffer: 20 mM HEPES, pH7.5, 10 mM MgCl2, 150 mM NaCl, 1 mM EGTA, 1 mM DTT, 10 uM GDP, 0.1% fatty acid free BSA, and 10 ug/ml Saponin to 0.4 nM. 40 ul of the [35S] GTP solution was added to the compound plate with a final concentration of 0.2 nM. The reaction was kept at room temperature for 45 min. At the end of incubation, all the mixtures in the compound plate were transferred to Millipore 384-well FB filter plates via the VELOCITY11 Vprep liquid handler. The filter plate was washed with water 4 times by using the manifold Embla plate washer and dried at 60° C. for 45 min. MicroScint 20 scintillation fluid (30 ul) was added to each well.; format: functional, cell membranes
[2] = target: Sphingosine 1-phosphate receptor 3 (Homo sapiens, UniProt Q99500); assay: as §1; format: functional, cell membranes
Chain of Sphingosine 1-phosphate receptor 3 (Q99500 whole entry): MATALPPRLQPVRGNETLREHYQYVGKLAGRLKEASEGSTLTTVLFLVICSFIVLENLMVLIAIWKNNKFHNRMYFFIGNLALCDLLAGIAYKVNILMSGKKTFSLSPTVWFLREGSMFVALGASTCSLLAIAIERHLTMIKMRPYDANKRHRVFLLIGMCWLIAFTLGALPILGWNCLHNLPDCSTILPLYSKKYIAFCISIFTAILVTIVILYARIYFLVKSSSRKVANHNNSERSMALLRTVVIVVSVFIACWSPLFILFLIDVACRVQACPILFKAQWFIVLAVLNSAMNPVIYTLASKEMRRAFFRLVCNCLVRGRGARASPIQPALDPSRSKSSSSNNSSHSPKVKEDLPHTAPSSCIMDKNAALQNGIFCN

Chain of Sphingosine 1-phosphate receptor 1 (P21453 whole entry): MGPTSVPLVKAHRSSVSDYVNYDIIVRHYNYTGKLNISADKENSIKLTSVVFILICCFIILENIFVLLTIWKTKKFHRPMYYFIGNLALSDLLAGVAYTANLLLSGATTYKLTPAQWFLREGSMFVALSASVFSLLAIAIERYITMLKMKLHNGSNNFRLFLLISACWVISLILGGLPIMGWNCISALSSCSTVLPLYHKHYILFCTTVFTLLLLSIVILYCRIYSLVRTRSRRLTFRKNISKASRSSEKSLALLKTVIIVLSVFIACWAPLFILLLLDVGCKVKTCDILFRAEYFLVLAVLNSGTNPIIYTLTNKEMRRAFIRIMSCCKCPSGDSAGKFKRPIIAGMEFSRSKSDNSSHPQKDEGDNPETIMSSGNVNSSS

EC50 [1]: 5.7 µM
EC50 [2]: > 62 µM
SMILES: FC(F)(F)Oc1ccc(-c2noc(CCC3(c4ccccc4)CCCCC3)n2)cc1
